In patent publication US20250041306A1, “TARGETED PROTEASE DEGRADATION (TED) PLATFORM” (EUBULUS BIOTHERAPEUTICS INC., priority 2021, published 2025):

Columns and labels:
[1] = tested on: Human Colon Cancer HT-29; test: Cell proliferation experiment (Alarm blue), HT-29; format: cell-based; settings: HT-29 cells, 72 h culture; read-out: Anti cell proliferative activity EC50, HT-29
Summary of the method: (§1)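 Log-phase cells in 96-well plates were exposed 72 h to compound in a 5-fold dilution series, duplicate wells. Viability was measured by Alamar blue fluorescence, and IC50 was derived from a fit using minimum, maximum and slope.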

[2] = tested on: human small cell lung cancer NCI-H82 xenograft tumor; test: In vivo efficacy in nude mouse xenograft tumor model of human small cell lung cancer NCI-H82; parameters: species or system BALB/c nude mice; settings: nude mice
Procedure: Transplanted tumor cell line: human small cell lung cancer cell NCI-H82, derived from the American Type Culture Collection Center (ATCC, cryopreserved in liquid nitrogen in the laboratory). Under 5% CO2 and 37° C. culture conditions, cells were routinely cultured in RPMI-1640 culture medium containing 10% fetal bovine serum; they were passaged according to cell growth, with a passage ratio of 1:2 to 1:5.
Experimental animal: Female BALB/c nude mice (number: 65; age: 6-8 weeks) were purchased from Charles River and raised in the SPF animal room of Suzhou Shengsu New Pharmaceutical Development Co., Ltd. (3D Biooptima). The temperature is 20 to 25° C., and relative humidity is 40% to 70%, with bright light and dark light for 12 hours each; animals were free to drink and eat. After normal feeding for about 5 days, mice with good physical signs can be selected for this experiment after veterinary inspection. Before grouping, animals were identified at the base of tail using maker pens. After grouping, each animal was identified by ear clipping.
Animal model preparation: NCI-H82 cells at logarithmic growth phase were collected, the cells were resuspended in 50% serum-free RPMI-1640 medium and 50% Matrigel after counting. The concentration of cells was adjusted to […] cells/mL. […] After inoculation, the animal status and tumor growth were regularly observed, the tumor diameter was measured using a electronic vernier caliper, the data were entered into Excel to calculate the tumor volume. […] After the start of experiment, the tumor diameter was measured twice a week, the tumor volume was calculated, and the animal weight was weighed and recorded at the same time. […]
Preparation of UB-181322 sample: An appropriate amount of UB series sample was weighed and put it into a glass bottle; an appropriate volume of DMSO was added. […] The liquid was vortexed to mix evenly, with the proportions of DMSO, 30% Solutol aqueous solution and ultrapure water in the liquid being 5%, 20% and 75%, to obtain preparations with appropriate final concentrations, which are ready for use. […]

[3] = tested on: Human Colon Cancer cells Colo205; test: Cell proliferation experiment (Alarm blue), Colo205; format: cell-based; settings: Colo205 cells, 72 h culture; read-out: Anti cell proliferative activity EC50, Colo205
Summary of the method: as §1

[4] = tested on: Human Small Cell Lung Cancer NCI-H82; test: Cell proliferation experiment (Alarm blue), H82; format: cell-based; settings: H82 cells, 72 h culture; read-out: Anti cell proliferative activity EC50, H82
Summary of the method: as §1

[5] = tested on: human gastric carcinoma cells N87; test: Cell proliferation experiment (Alarm blue), N87; format: cell-based; settings: N87 cells, 72 h culture; read-out: Anti cell proliferative activity EC50, N87
Summary of the method: as §1

[6] = tested on: Human Small Cell Lung Cancer H69; test: Cell proliferation experiment (Alarm blue), H69; format: cell-based; settings: H69 cells, 72 h culture; read-out: Anti cell proliferative activity EC50, H69
Summary of the method: as §1

[7] = injection 23 mg/kg once every two days (FIG. 3B)

Row | Structure (SMILES) | EC50 [1] | tumor inhibitory effect compared with blank group ([2]; injection 23 mg/kg once every two days (FIG. 3A)) | mouse body weight during the administration period [2, 7] | toxicity [2, 7] | EC50 [3] | EC50 [4] | EC50 [5] | EC50 [6]
1 | CC(C)[C@@H](NC(=O)CCOCCOCCOCCOCCOCCOCCOCCOCCN1C(=O)CC(SC[C@H](N)C(=O)N[C@H](Cc2ccccc2)C(=O)N[C@H]2CSSC[C@@H](C(=O)N[C@H](CO)[C@@H](C)O)NC(=O)[C@H]([C@@H](C)O)NC(=O)[C@H](CCCCN)NC(=O)[C@@H](Cc3c[nH]c4ccccc34)NC(=O)[C@H](Cc3ccccc3)NC2=O)C1=O)C(=O)N[C@@H](C)C(=O)Nc1ccc(COC(=O)N(CCC#Cc2ccc3c(c2)CN(C2CCC(=O)NC2=O)C3=O)[C@H]2CC[C@H](NC(=O)N3CCN(c4ccc(Nc5ncc(Cl)c(Nc6ccccc6C(N)=O)n5)cc4)CC3)CC2)cc1 (stereo partly shown) [UB-181322] | > 1000 nM | shows the effect of inhibiting tumor growth | does not change significantly | low | 384 nM | 312 nM | 470 nM | > 1000 nM
2 | CNC(=O)c1ccccc1Nc1nc(Nc2ccc(N3CCN(C(=O)NC4CCC(N(CCC#Cc5ccc6c(c5)CN(C5CCC(=O)NC5=O)C6=O)C(=O)OCc5ccc(NC(=O)[C@H](CC(N)=O)NC(=O)[C@H](C)NC(=O)[C@H](C)NC(=O)CCCCCN6C(=O)CC(SC[C@H](N)C(=O)N[C@H](Cc7ccccc7)C(=O)N[C@H]7CSSC[C@@H](C(=O)N[C@H](CO)[C@@H](C)O)NC(=O)[C@H]([C@@H](C)O)NC(=O)[C@H](CCCCN)NC(=O)[C@@H](Cc8c[nH]c9ccccc89)NC(=O)[C@H](Cc8ccccc8)NC7=O)C6=O)cc5)CC4)CC3)cc2)ncc1Cl (stereo partly shown) [UB-181247] | > 1000 nM |  |  |  | 169 nM | 91.4 nM | 168 nM | > 1000 nM
